Assay results reported in patent US20070299103A1, “[1,2,4]Triazolo[4,3-A]Pyridine Derivatives for the Treatment of Hyperproliferative Diseases” (priority 2004, published 2007).

Assays:
[1] = biological target: human MEK1 (Homo sapiens, UniProt Q02750); test: Inhibition of human MEK1 kinase activity, TR-FRET assay; assay type: biochemical; settings: 100 nM MEK1, 15 μM ATP, 300 nM ERK2, two hours; read-out: Inhibition of MEK, Activity (IC50)
Method: The activity of the compounds of the present invitation may be determined by the following procedure: Inhibition of human MEK1 kinase activity was monitored with a homogenous, fluorescence based assay. The assay uses time resolved fluorescence resonance energy transfer to probe for phosphorylation of ERK1 by MEK1. The assay is carried out in low volume 96 well microtiterplates. In a total volume of 15 μl, compounds are incubated with 100 nM MEK1, 15 μM ATP, 300 nM ERK2 employing a buffer containing 20 mM TRIS/HCl, 10 mM MgCl2, 100 μM NaVO4, 1 mM DTT, and 0.005% Tween 20 (pH 7.4). After two hours, 5 nM Europium-anti-PY20 (Perkin Elmer) and 50 nM Anti-GST-Allophycocyanin (CisBio) in buffer containing 50 mM EDTA and 0.05% BSA are added and the reaction incubated for one hour in the dark. Time-resolved fluorescence is measured using a LJL-Analyst (Molecular Devices) with an excitation wavelength of 340 nm and an emission wavelength of 665 nm. The final concentration of DMSO is 2%. To assess the inhibitory potential of the compounds, IC50-values were determined.
The following compounds exemplify such activity with “+” meaning 1 μM<IC50≦10 μM and “++” IC50≦1 μM

[2] = tested on: Murine colon C26 cells; test: Tumor cell proliferation assay (ATP Lite), C26; assay type: cell-based; settings: 4 days incubation
Method: (§1) Murine colon C26, human melanoma A375 and human melanoma Mel5 cells were plated in 96 well Corning white plates (1500 cells/well for C26, and 2000 cells/well for A375, and MiaPaCa-2) and cultured overnight at 37° C. in 5% CO2. Inhibitors were serially diluted in 100% DMSO and subsequently added to cells to reach a final concentration of 0.25% DMSO. The cells were incubated for 4 days in the presence of test compounds in cell growth media (DMEM with 10% fetal bovine serum, 2 mM glutamine for C26, and MiaPaCa-2, and RPMI with 10% fetal bovine serum, 2 mM glutamine for A375). Cell proliferation was quantitated using the ATP lite cell proliferation kit (Packard). Columns 2-4 show the concentration of compounds required to induce 50% cell death (IC50 in μM) of human endometriotic cells. With “+” meaning 100 μM<IC50≦10 μM and “++” IC50≦1 μM and “n.d.” means not determined.

[3] = tested on: human melanoma Mel5 cells; test: Tumor cell proliferation assay (ATP Lite), Mel5; assay type: cell-based; settings: 4 days incubation
Method: as §1

[4] = tested on: human melanoma A375 cells; test: Tumor cell proliferation assay (ATP Lite), A375; assay type: cell-based; settings: 4 days incubation
Method: as §1

[5] = Microsomal stability assay, human liver microsomes; assay type: in vitro ADME; settings: pooled human liver microsomes, pH 7.4; 3 μM compound, 0.5 mg/ml human liver microsomes, 37° C., 2 mM NADPH; read-out: HLM t½
Method: (§2) Compounds were tested on their stability in human, rat and mouse liver microsomal preparations (HLM, RLM and MLM respectively). At a final concentration of 3 μM, compounds were incubated at 37° C. with 0.5 mg/ml human, rat or mouse liver microsomes in a buffer containing 50 mM phosphate, pH 7.4 and 2 mM NADPH. Pooled human liver microsomes or pooled male rat liver microsomes (Sprague Dawley) were obtained from NatuTec (Frankfurt, Germany). Incubations without NADPH served as negative controls. Reactions were stopped after 0, 15, 30, 45 or 60 min by the addition of acetonitrile and microsomes were pelleted by centrifugation (10 min at 6200×g). Supernatants were analyzed by HPLC regarding the concentration of mother compound. Finally, the half-life of compounds in the regarding microsomal preparation was calculated.

[6] = Microsomal stability assay, rat liver microsomes; assay type: in vitro ADME; settings: male, Sprague Dawley, pooled rat liver microsomes, pH 7.4; 3 μM compound, 0.5 mg/ml rat liver microsomes, 37° C., 2 mM NADPH; read-out: RLM t½
Method: as §2

[7] = tested on: Caco-2 cells; test: Caco-2 permeability assay; assay type: in vitro ADME; settings: 10 μM, pH 7.4, 120 minutes
Method: Caco-2 cells obtained from the ATCC at passage number 27 are used. Cells (passage number 40-60) were seeded on to Millipore Multiscreen Caco-2 plates or Falcon HTS inserts at 1×10^5 cells/cm2. Cells were cultured for 20 days in DMEM and media was changed every two or three days. On day 20 the permeability study was performed.
Permeability was studied by applying compound to the apical surface of cell monolayers and measuring compound permeation into the basolateral compartment. The experiment was also performed in the reverse direction (B-A) to investigate active transport. […]
HBSS was then removed from the apical compartment and replaced with test compound dosing solutions. […] Test compound permeability was assessed in duplicate. […]
The integrity of the monolayers throughout the experiment is checked by monitoring lucifer yellow permeation using fluorimetric analysis. […] Test and control compounds were quantified by LC-MS/MS cassette analysis using a 5-point calibration with appropriate dilution of the samples. […]
The permeability coefficient for each compound (Papp) was calculated from the following equation: Papp=[dQ/dt]/[C0×A] […]
Wherein “+” means a caco A-B and caco B-A value of 1-10 and “++” means a caco A-B and caco B-A value of 11-100 and “n.d.” means not determined.

[8] = tested on: Tumors; settings: patients; cited from earlier work
[9] = in vivo; cited from earlier work

human MEK1, sequence (Q02750 whole entry): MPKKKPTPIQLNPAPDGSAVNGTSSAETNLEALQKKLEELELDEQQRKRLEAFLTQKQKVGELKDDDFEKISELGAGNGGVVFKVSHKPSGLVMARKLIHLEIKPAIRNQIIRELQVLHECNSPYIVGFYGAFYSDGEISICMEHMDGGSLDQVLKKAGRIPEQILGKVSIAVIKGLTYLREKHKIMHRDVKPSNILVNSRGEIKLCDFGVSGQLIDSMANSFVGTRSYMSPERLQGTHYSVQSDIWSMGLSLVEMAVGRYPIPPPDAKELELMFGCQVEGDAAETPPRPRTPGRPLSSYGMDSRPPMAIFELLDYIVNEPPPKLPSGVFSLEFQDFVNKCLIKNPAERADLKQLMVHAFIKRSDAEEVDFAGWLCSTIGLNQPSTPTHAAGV

Row | SMILES | IC50 [1] | C26 cells IC50 [2] | Mel5 cells IC50 [3] | A375 cells IC50 [4] | half-life at 3 μM [5] | half-life at 3 μM [6] | Caco A-B ([7]; apical to basolateral) | Caco B-A ([7]; basolateral to apical) | efficacy in clinical phase II trials [8] | bioavailability [9]
1 | Cc1cc(Br)ccc1Nc1cc2nnc(C)n2cc1C(=O)NOC[C@@H](O)CO [Compound 3b, 7-[(4-Bromo-2-methylphenyl)amino]-N-([(2S)-2,3-dihydroxypropyl]oxy)-3-methyl[1,2,4]triazolo[4,3-a]pyridine-6-carboxamide] | 1000 to 10000 nM | + (100 μM<IC50≦10 μM) | + (100 μM<IC50≦10 μM) | + (100 μM<IC50≦10 μM) | > 2 h | > 2 h | + (a caco A-B and caco B-A value of 1-10) | + (a caco A-B and caco B-A value of 1-10) |  | 
2 | Cc1cc(I)ccc1Nc1cc2nnc(C)n2cc1C(=O)NOC[C@H](O)CO [Compound 3c, 7-[(4-Iodo-2-methylphenyl)amino]-N-([(2R)-2,3-dihydroxypropyl]oxy)-3-methyl[1,2,4]triazolo[4,3-a]pyridine-6-carboxamide] | ≤ 1000 nM |  |  |  |  |  |  |  |  | 
3 | O=C(NOCC1CC1)c1ccc(F)c(F)c1Nc1ccc(I)cc1Cl [PD-184352] |  |  |  |  |  |  |  |  | lacking efficacy | low bioavailability

Further lines, with some results ahead:

Row | IC50 [1] | C26 cells IC50 [2] | Mel5 cells IC50 [3] | A375 cells IC50 [4] | half-life at 3 μM [5] | half-life at 3 μM [6] | SMILES | Caco A-B ([7]; apical to basolateral) | Caco B-A ([7]; basolateral to apical) | efficacy in clinical phase II trials [8] | bioavailability [9]
4 | 1000 to 10000 nM | + (100 μM<IC50≦10 μM) | + (100 μM<IC50≦10 μM) | + (100 μM<IC50≦10 μM) |  |  | Cc1cc(Br)ccc1Nc1cc2nnc(C)n2cc1C(=O)O [Compound 2a, 7-[(4-Bromo-2-methylphenyl)amino]-3-methyl[1,2,4]triazolo[4,3-a]pyridine-6-carboxylic acid] |  |  |  | 
5 | ≤ 1000 nM | + (100 μM<IC50≦10 μM) | + (100 μM<IC50≦10 μM) | + (100 μM<IC50≦10 μM) |  |  | Cc1cc(Br)ccc1Nc1cc2nnc(C)n2cc1C(=O)NO [Compound 3a, 7-[(4-Bromo-2-methylphenyl)amino]-N-hydroxy-3-methyl[1,2Z4]triazolo[4,3-a]pyridine-6-carboxamide] |  |  |  | 
